Test results as given in ChEMBL document CHEMBL3046511, “Controlling Efficacy of Strobilurin Derivatives against Wheat Powdery Mildew and Eyespot” (J Pestic Sci, 2002).
≈ marks a conversion by molar mass, not a printed value.

System: Podosphaera fuliginea
Assay: Fungicidal activity against Podosphaera fuliginea in cucumber cotyledon assessed as control of powdery mildew measured as width inhibition at 2 ppm treated 24 hr inoculation at 22 +/- 2 degC measured after 10 days by vapour-phase activity test
Assay type: functional
Conditions: not given

Compound | INH [mm]
CO/N=C(/C(=O)OC)c1ccccc1COc1ccccc1C [KRESOXIM-METHYL] | 13.5

System: Podosphaera fuliginea
Assay: Fungicidal activity against Podosphaera fuliginea in cucumber cotyledon assessed as control of powdery mildew measured as width inhibition at 7.8 ppm treated 24 hr inoculation at 22 +/- 2 degC measured after 10 days by vapour-phase activity test
Assay type: functional
Conditions: not given

Compound | INH [mm]
CNC(=O)/C(=N/OC)c1ccccc1Oc1ncc(Cl)cc1C(F)(F)F | 10.7
CO/N=C(/C(=O)OC)c1ccccc1COc1ccccc1C [KRESOXIM-METHYL] | <20
CC(C)(C)C(=O)C(Oc1ccc(Cl)cc1)n1cncn1 (stereo unspecified) [TRIADIMEFON] | <20

System: Oculimacula yallundae
Assay: Fungicidal activity against W-type Oculimacula yallundae assessed as inhibition of mycelial growth at 20 degC for 14 days in presence of 50 ppm flovone
Assay type: functional, organism-based
Conditions: not given

Compound | EC50 [ppm]
CNC(=O)/C(=N/OC)c1ccccc1Oc1ncc(Cl)cc1C(F)(F)F | 0.08
CNC(=O)/C(=N/OC)c1ccccc1Oc1cc(C)ccc1C | 0.03
CO/C=C(/C(=O)OC)c1ccccc1Oc1cc(Oc2ccccc2C#N)ncn1 [AZOXYSTROBIN] | 0.41
CO/N=C(/C(=O)OC)c1ccccc1COc1ccccc1C [KRESOXIM-METHYL] | 0.11

Same assay, conditions: Oculimacula yallundae, 336 h

Compound | MIC [µg/mL]
CNC(=O)/C(=N/OC)c1ccccc1Oc1ncc(Cl)cc1C(F)(F)F | 1
CNC(=O)/C(=N/OC)c1ccccc1Oc1cc(C)ccc1C | 1
CO/C=C(/C(=O)OC)c1ccccc1Oc1cc(Oc2ccccc2C#N)ncn1 [AZOXYSTROBIN] | 25
CO/N=C(/C(=O)OC)c1ccccc1COc1ccccc1C [KRESOXIM-METHYL] | 5

System: Oculimacula yallundae
Assay: Fungicidal activity against W-type Oculimacula yallundae assessed as inhibition of mycelial growth at 20 degC for 14 days
Assay type: functional, organism-based
Conditions: not given

Compound | EC50 [ppm]
CNC(=O)/C(=N/OC)c1ccccc1Oc1ncc(Cl)cc1C(F)(F)F | 0.33
CNC(=O)/C(=N/OC)c1ccccc1Oc1cc(C)ccc1C | 0.13
CO/C=C(/C(=O)OC)c1ccccc1Oc1cc(Oc2ccccc2C#N)ncn1 [AZOXYSTROBIN] | 3.2
OC(c1ccc(Cl)cc1)(c1cncnc1)c1ccccc1Cl (stereo unspecified) [FENARIMOL] | 1.02
CO/N=C(/C(=O)OC)c1ccccc1COc1ccccc1C [KRESOXIM-METHYL] | 0.79
CCCN(CCOc1c(Cl)cc(Cl)cc1Cl)C(=O)n1ccnc1 [PROCHLORAZ] | 0.06
COC(=O)NC(=S)Nc1ccccc1NC(=S)NC(=O)OC [THIOPHANATE METHYL] | 1.18
CC(C)(C)C(=O)C(Oc1ccc(Cl)cc1)n1cncn1 (stereo unspecified) [TRIADIMEFON] | 7.81

Same assay, conditions: Oculimacula yallundae, 336 h

Compound | MIC [µg/mL]
CNC(=O)/C(=N/OC)c1ccccc1Oc1ncc(Cl)cc1C(F)(F)F | < 125
CNC(=O)/C(=N/OC)c1ccccc1Oc1cc(C)ccc1C | < 125
CO/C=C(/C(=O)OC)c1ccccc1Oc1cc(Oc2ccccc2C#N)ncn1 [AZOXYSTROBIN] | < 125
OC(c1ccc(Cl)cc1)(c1cncnc1)c1ccccc1Cl (stereo unspecified) [FENARIMOL] | 25 (≈ 75.5 µM)
CO/N=C(/C(=O)OC)c1ccccc1COc1ccccc1C [KRESOXIM-METHYL] | < 125
CCCN(CCOc1c(Cl)cc(Cl)cc1Cl)C(=O)n1ccnc1 [PROCHLORAZ] | 5 (≈ 13.3 µM)
COC(=O)NC(=S)Nc1ccccc1NC(=S)NC(=O)OC [THIOPHANATE METHYL] | 25 (≈ 73 µM)
CC(C)(C)C(=O)C(Oc1ccc(Cl)cc1)n1cncn1 (stereo unspecified) [TRIADIMEFON] | < 125

System: Podosphaera fuliginea
Assay: Fungicidal activity against Podosphaera fuliginea in cucumber cotyledon assessed as control of powdery mildew measured as length inhibition at 2 ppm treated 24 hr inoculation at 22 +/- 2 degC measured after 10 days by vapour-phase activity test
Assay type: functional
Conditions: not given

Compound | INH [mm]
CO/N=C(/C(=O)OC)c1ccccc1COc1ccccc1C [KRESOXIM-METHYL] | 12.7

System: Podosphaera fuliginea
Assay: Fungicidal activity against Podosphaera fuliginea in cucumber cotyledon assessed as control of powdery mildew measured as length inhibition at 7.8 ppm treated 24 hr inoculation at 22 +/- 2 degC measured after 10 days by vapour-phase activity test
Assay type: functional
Conditions: not given

Compound | INH [mm]
CNC(=O)/C(=N/OC)c1ccccc1Oc1ncc(Cl)cc1C(F)(F)F | 8.9
CO/N=C(/C(=O)OC)c1ccccc1COc1ccccc1C [KRESOXIM-METHYL] | <20
CC(C)(C)C(=O)C(Oc1ccc(Cl)cc1)n1cncn1 (stereo unspecified) [TRIADIMEFON] | <20

System: Blumeria graminis f. sp. tritici
Assay: Fungicidal activity against Blumeria graminis f. sp. tritici in 2 weeks old wheat seedlings assessed as control of powdery mildew pretreated 24 hr before by foliar application at 22 +/- 2 degC under greenhouse and leaf area measured after 10 days of inoculation
Assay type: functional, organism-based
Conditions: not given

Compound | EC50 [ppm]
CNC(=O)/C(=N/OC)c1ccccc1Oc1ncc(Cl)cc1C(F)(F)F | 0.05
CNC(=O)/C(=N/OC)c1ccccc1Oc1cc(C)ccc1C | 0.07
CO/C=C(/C(=O)OC)c1ccccc1Oc1cc(Oc2ccccc2C#N)ncn1 [AZOXYSTROBIN] | 1.39
OC(c1ccc(Cl)cc1)(c1cncnc1)c1ccccc1Cl (stereo unspecified) [FENARIMOL] | 0.58
CO/N=C(/C(=O)OC)c1ccccc1COc1ccccc1C [KRESOXIM-METHYL] | 0.95
CCCN(CCOc1c(Cl)cc(Cl)cc1Cl)C(=O)n1ccnc1 [PROCHLORAZ] | 3.39
CC(C)(C)C(=O)C(Oc1ccc(Cl)cc1)n1cncn1 (stereo unspecified) [TRIADIMEFON] | 1.6

System: Blumeria graminis f. sp. tritici
Assay: Fungicidal activity against Blumeria graminis f. sp. tritici in 2 weeks old wheat seedlings assessed as control of powdery mildew at 0.06 ppm pretreated 24 hr before by foliar application at 22 +/- 2 degC under greenhouse and leaf area measured after 10 days of inoculation
Assay type: functional
Conditions: not given

Compound | Activity [%]
CNC(=O)/C(=N/OC)c1ccccc1Oc1ncc(Cl)cc1C(F)(F)F | 50
CNC(=O)/C(=N/OC)c1ccccc1Oc1cc(C)ccc1C | 22

System: Blumeria graminis f. sp. tritici
Assay: Fungicidal activity against Blumeria graminis f. sp. tritici in 2 weeks old wheat seedlings assessed as control of powdery mildew at 0.125 ppm pretreated 24 hr before by foliar application at 22 +/- 2 degC under greenhouse and leaf area measured after 10 days of inoculation
Assay type: functional
Conditions: not given

Compound | Activity [%]
CNC(=O)/C(=N/OC)c1ccccc1Oc1ncc(Cl)cc1C(F)(F)F | 60
CNC(=O)/C(=N/OC)c1ccccc1Oc1cc(C)ccc1C | 79
CO/C=C(/C(=O)OC)c1ccccc1Oc1cc(Oc2ccccc2C#N)ncn1 [AZOXYSTROBIN] | 5
OC(c1ccc(Cl)cc1)(c1cncnc1)c1ccccc1Cl (stereo unspecified) [FENARIMOL] | 0
CO/N=C(/C(=O)OC)c1ccccc1COc1ccccc1C [KRESOXIM-METHYL] | 14
CCCN(CCOc1c(Cl)cc(Cl)cc1Cl)C(=O)n1ccnc1 [PROCHLORAZ] | 0
CC(C)(C)C(=O)C(Oc1ccc(Cl)cc1)n1cncn1 (stereo unspecified) [TRIADIMEFON] | 0

System: Blumeria graminis f. sp. tritici
Assay: Fungicidal activity against Blumeria graminis f. sp. tritici in 2 weeks old wheat seedlings assessed as control of powdery mildew at 0.5 ppm pretreated 24 hr before by foliar application at 22 +/- 2 degC under greenhouse and leaf area measured after 10 days of inoculation
Assay type: functional
Conditions: not given

Compound | Activity [%]
CNC(=O)/C(=N/OC)c1ccccc1Oc1ncc(Cl)cc1C(F)(F)F | 89
CNC(=O)/C(=N/OC)c1ccccc1Oc1cc(C)ccc1C | 94
CO/C=C(/C(=O)OC)c1ccccc1Oc1cc(Oc2ccccc2C#N)ncn1 [AZOXYSTROBIN] | 35
OC(c1ccc(Cl)cc1)(c1cncnc1)c1ccccc1Cl (stereo unspecified) [FENARIMOL] | 50
CO/N=C(/C(=O)OC)c1ccccc1COc1ccccc1C [KRESOXIM-METHYL] | 39
CCCN(CCOc1c(Cl)cc(Cl)cc1Cl)C(=O)n1ccnc1 [PROCHLORAZ] | 23
CC(C)(C)C(=O)C(Oc1ccc(Cl)cc1)n1cncn1 (stereo unspecified) [TRIADIMEFON] | 30

System: Blumeria graminis f. sp. tritici
Assay: Fungicidal activity against Blumeria graminis f. sp. tritici in 2 weeks old wheat seedlings assessed as control of powdery mildew at 2 ppm pretreated 24 hr before by foliar application at 22 +/- 2 degC under greenhouse and leaf area measured after 10 days of inoculation
Assay type: functional
Conditions: not given

Compound | Activity [%]
CNC(=O)/C(=N/OC)c1ccccc1Oc1ncc(Cl)cc1C(F)(F)F | 96
CNC(=O)/C(=N/OC)c1ccccc1Oc1cc(C)ccc1C | 98
CO/C=C(/C(=O)OC)c1ccccc1Oc1cc(Oc2ccccc2C#N)ncn1 [AZOXYSTROBIN] | 64
OC(c1ccc(Cl)cc1)(c1cncnc1)c1ccccc1Cl (stereo unspecified) [FENARIMOL] | 84
CO/N=C(/C(=O)OC)c1ccccc1COc1ccccc1C [KRESOXIM-METHYL] | 68
CCCN(CCOc1c(Cl)cc(Cl)cc1Cl)C(=O)n1ccnc1 [PROCHLORAZ] | 57
CC(C)(C)C(=O)C(Oc1ccc(Cl)cc1)n1cncn1 (stereo unspecified) [TRIADIMEFON] | 57

System: Blumeria graminis f. sp. tritici
Assay: Fungicidal activity against Blumeria graminis f. sp. tritici in 2 weeks old wheat seedlings assessed as control of powdery mildew at 7.8 ppm pretreated 24 hr before by foliar application at 22 +/- 2 degC under greenhouse and leaf area measured after 10 days of inoculation
Assay type: functional
Conditions: not given

Compound | Activity [%]
CNC(=O)/C(=N/OC)c1ccccc1Oc1ncc(Cl)cc1C(F)(F)F | 100
CNC(=O)/C(=N/OC)c1ccccc1Oc1cc(C)ccc1C | 100
CO/C=C(/C(=O)OC)c1ccccc1Oc1cc(Oc2ccccc2C#N)ncn1 [AZOXYSTROBIN] | 85
OC(c1ccc(Cl)cc1)(c1cncnc1)c1ccccc1Cl (stereo unspecified) [FENARIMOL] | 94
CO/N=C(/C(=O)OC)c1ccccc1COc1ccccc1C [KRESOXIM-METHYL] | 86
CCCN(CCOc1c(Cl)cc(Cl)cc1Cl)C(=O)n1ccnc1 [PROCHLORAZ] | 70
CC(C)(C)C(=O)C(Oc1ccc(Cl)cc1)n1cncn1 (stereo unspecified) [TRIADIMEFON] | 82

System: Blumeria graminis f. sp. tritici
Assay: Fungicidal activity against Blumeria graminis f. sp. tritici in 2 weeks old wheat seedlings assessed as control of powdery mildew at 31.3 ppm pretreated 24 hr before by foliar application at 22 +/- 2 degC under greenhouse and leaf area measured after 10 days of inoculation
Assay type: functional
Conditions: not given

Compound | Activity [%]
CNC(=O)/C(=N/OC)c1ccccc1Oc1ncc(Cl)cc1C(F)(F)F | 100
CNC(=O)/C(=N/OC)c1ccccc1Oc1cc(C)ccc1C | 100
CO/C=C(/C(=O)OC)c1ccccc1Oc1cc(Oc2ccccc2C#N)ncn1 [AZOXYSTROBIN] | 87
OC(c1ccc(Cl)cc1)(c1cncnc1)c1ccccc1Cl (stereo unspecified) [FENARIMOL] | 98
CO/N=C(/C(=O)OC)c1ccccc1COc1ccccc1C [KRESOXIM-METHYL] | 92
CCCN(CCOc1c(Cl)cc(Cl)cc1Cl)C(=O)n1ccnc1 [PROCHLORAZ] | 70
CC(C)(C)C(=O)C(Oc1ccc(Cl)cc1)n1cncn1 (stereo unspecified) [TRIADIMEFON] | 94

System: Blumeria graminis f. sp. tritici
Assay: Fungicidal activity against Blumeria graminis f. sp. tritici in 2 weeks old wheat seedlings assessed as control of powdery mildew at 125 ppm pretreated 24 hr before by foliar application at 22 +/- 2 degC under greenhouse and leaf area measured after 10 days of inoculation
Assay type: functional
Conditions: not given

Compound | Activity [%]
CO/C=C(/C(=O)OC)c1ccccc1Oc1cc(Oc2ccccc2C#N)ncn1 [AZOXYSTROBIN] | 95
OC(c1ccc(Cl)cc1)(c1cncnc1)c1ccccc1Cl (stereo unspecified) [FENARIMOL] | 98
CO/N=C(/C(=O)OC)c1ccccc1COc1ccccc1C [KRESOXIM-METHYL] | 100
CCCN(CCOc1c(Cl)cc(Cl)cc1Cl)C(=O)n1ccnc1 [PROCHLORAZ] | 92
CC(C)(C)C(=O)C(Oc1ccc(Cl)cc1)n1cncn1 (stereo unspecified) [TRIADIMEFON] | 99
